Patent US11155567B2, “Sting agonist compounds and methods of use” (Mersana Therapeutics, Inc., priority 2019, dated 2021)

What was measured:
Format in all cases: cell-based
Human STING (HAQ allele) = molecular target: T1, Human STING (HAQ allele) (Homo sapiens, UniProt Q86WV6, G230A/H232R/R293Q/R71H); test: IRF3 reporter induction in THP1-Dual Human Monocytes cells (homozygous HAQ STING allele); conditions: IRF3 reporter (secreted luciferase), 24 hours incubation
T1 construct: THP1-Dual™ Human Monocytes cells with the homozygous HAQ allele; host or cells: THP1-Dual human monocytes
T1 sequence (Q86WV6 whole entry R71H/G230A/H232R/R293Q): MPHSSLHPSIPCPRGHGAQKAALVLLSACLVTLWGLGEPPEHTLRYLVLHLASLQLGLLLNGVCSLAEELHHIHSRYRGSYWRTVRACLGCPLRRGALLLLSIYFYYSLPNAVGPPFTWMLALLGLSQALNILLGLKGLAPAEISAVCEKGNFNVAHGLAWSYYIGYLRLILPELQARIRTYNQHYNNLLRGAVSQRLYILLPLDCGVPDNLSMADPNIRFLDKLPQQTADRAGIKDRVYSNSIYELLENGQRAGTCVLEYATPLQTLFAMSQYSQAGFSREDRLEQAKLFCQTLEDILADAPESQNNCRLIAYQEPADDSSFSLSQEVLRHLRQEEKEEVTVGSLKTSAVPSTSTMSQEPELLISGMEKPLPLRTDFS
Experimental: (§1) THP1-Dual™ Human Monocytes cells with the homozygous HAQ allele, known to be a natural variant allele of STING occurring in 20% of the human population (Invivogen) have been engineered with two independent gene reporter systems: a secreted embryonic alkaline phosphatase (SEAP) reporter gene for NFkB activity, and secreted luciferase reporter for […] (IRF3) activity were used. 4×10^5 THP1-Dual™ cells were incubated with test Compounds in a 5-fold titration steps from 1 to 0.0128 μM in RPMI media with 10% FBS, for 24 hours at 37° C. with 5% CO2. Cell culture supernatants (20 μl) from each incubated sample was added to resuspended QUANTI-Blue™ Solution (Invivogen, 180 μl) in each well of a flat-bottom 96-well plate, then incubated for 2 h. NFkB levels were evaluated using a spectrophotometer at 620-655 nm.
(§2) To evaluate IRF3 reporter levels, cell culture supernatant (20 μl) from each incubated sample was added to QUANTI-Luc™ assay solution (Invivogen, 50 μl), and the luminescence was measured with a SpectraMax M3 spectrophotometer (Molecular Devices).
(§3) The EC50 value was determined from the dose response curve based on reference Compounds. Table 2a provides the results for IRF3 reporter induction THP1-Dual™ Human Monocytes cells and Table 2b provides the results for IRF3 reporter induction in THP1-Dual™ KI-hSTING-H232 Cells and THP1-Dual™ KI-hSTING-R232 Cells (“A” means <30 nM; “B” means ≥30 nM and <100 nM; “C” means ≥100 nM).

Human STING = molecular target: T2, Human STING (Homo sapiens, UniProt Q86WV6, G230A/H232R/R293Q/R71H); test: Activation of human STING signaling in permeabilized THP1 cells, IRF3 induction; conditions: THP1-Dual cells permeabilized with digitonin buffer 30 minutes on ice, then 24 h in RPMI media
T2 construct: host or cells: THP1-Dual cells, digitonin-permeabilized
T2 sequence (Q86WV6 whole entry R71H/G230A/H232R/R293Q): as above
Experimental: as §2
4×10^5 THP1-Dual™ cells (NF-κB-SEAP and IRF-Lucia luciferase Reporter Monocytes, Invivogen) were incubated with test Compounds in a 5-fold titration steps from […] in permeabilized buffer (50 mM HEPES pH 7.0, 100 mM KCl, 3 mM MgCl2, 85 mM sucrose, 0.2% BSA, 1 mM ATP, 0.1 mM GTP, 0.1 mM TTP, 1 μg/ml digitonin) for 30 minutes on ice. Cells were then washed and incubated in a fresh RPMI media with 10% FBS at 37° C. with 5% CO2 for 24 h. Cell culture supernatants from each sample were collected and NFkB and IRF3 were evaluated as above. Table 3 provides the results for IRF3 induction (“A” means <1 μM; “B” means ≥1 μM and <50 μM; “C” means ≥50 μM).

[1] = molecular target: T3, R232H human STING variant (Homo sapiens, UniProt Q86WV6); test: IRF3 reporter induction in THP1-Dual KI-hSTING-H232 Cells; conditions: THP1-Dual KI-hSTING-H232 Cells (R232H Haplotype)
T3 construct: host or cells: THP1-Dual KI-hSTING-H232 cells, generated from THP1-Dual KO-STING cells
T3 sequence (Q86WV6 whole entry, stated change not applied): as the sequence (Q86WV6 whole entry R71H/G230A/H232R/R293Q) above, with H71R, A230G, R232H, Q293R counted along it
Experimental: as §1, §2
(§4) NFkB and IRF3 reporter levels were also determined for THP1-Dual™ KI-hSTING-H232 Cells and THP1-Dual™ KI-hSTING-R232 Cells. THP1-Dual™ KI-hSTING-H232 Cells (R232H Haplotype) were generated from THP1-Dual™ KO-STING cells by knockin of the intronless coding sequence (from the ATG to TGA) of the R232H human STING variant (Invivogen). R232H has been identified as a natural variant allele of STING occurring in ˜14% of the human population. THP1-Dual™ KI-hSTING-R232 Cells (R232 Haplotype) were generated from THP1-Dual™ KO-STING cells by knockin of the intronless coding sequence (from the ATG to the TGA) of the R232 hSTING variant. Genomic studies indicate that this variant, which contains an arginine at position 232 (R232), is the most prevalent variant with an occurrence (homozygous allele) of ˜45-58% in the human population.
as §3

R232 hSTING variant = molecular target: T4, R232 hSTING variant (Homo sapiens, UniProt Q86WV6, H232R); test: IRF3 reporter induction in THP1-Dual KI-hSTING-R232 Cells; conditions: THP1-Dual KI-hSTING-R232 Cells (R232 Haplotype)
T4 construct: expressed in transfected cells; host or cells: THP1-Dual KI-hSTING-R232 cells, generated from THP1-Dual KO-STING cells
T4 sequence (Q86WV6 whole entry H232R): as the sequence (Q86WV6 whole entry R71H/G230A/H232R/R293Q) above, with H71R, A230G, Q293R counted along it
Experimental: as §1, §2, §4, §3

Row | SMILES | EC50 (Human STING (HAQ allele)) [nM] | EC50 (Human STING) [nM] | EC50 [1] [nM] | EC50 (R232 hSTING variant) [nM]
1 | CCc1nc(C)oc1C(=O)Nc1nc2cc(C(N)=O)cc(OC)c2n1C/C=C/Cn1c(NC(=O)c2cc(C)nn2CC)nc2cc(C(N)=O)cc(OCCCO)c21 [compound 43] | < 30 | < 1000 |  | 
2 | CCc1nc(C)oc1C(=O)Nc1nc2cc(C(N)=O)cc(OCCCO)c2n1C/C=C/Cn1/c(=N/C(=O)c2cc(C)nn2CC)sc2cc(C(N)=O)cc(OC)c21 [compound 69] | ≥ 100 |  | < 30 | < 30
3 | CCc1nc(C)oc1C(=O)/N=c1\sc2cc(C(N)=O)cc(OCCCO)c2n1C/C=C/Cn1c(NC(=O)c2oc(C)nc2CC)nc2cc(C(N)=O)cnc21 [compound 146] | ≥ 100 | < 1000 | < 30 | < 30
4 | CCc1nc(C)oc1C(=O)/N=c1\sc2nc(C(N)=O)cnc2n1C/C=C/Cn1c(NC(=O)c2oc(C)nc2CC)nc2cc(C(N)=O)cc(OCCCO)c21 [compound 167] | ≥ 100 |  | 30 to 100 | 30 to 100
5 | CCc1nn(C)cc1C(=O)Nc1nc2cc(C(N)=O)cc(OCCCO)c2n1C/C=C/Cn1c(NC(=O)c2cc(C)nn2CC)nc2cc(C(N)=O)ccc21 [compound 53] | ≥ 100 | < 1000 |  | 
6 | CCc1nc(C)oc1C(=O)Nc1nc2cc(C(N)=O)cc(OC)c2n1C/C=C/Cn1c(NC(=O)c2oc(C)nc2CC)nc2cc(C(N)=O)cc(OCCCN)c21 [compound 18] | 30 to 100 | < 1000 |  | 
7 | CCn1nc(C)cc1C(=O)/N=c1\sc2cc(C(N)=O)cc(OC)c2n1C/C=C/Cn1c(NC(=O)c2cc(C)nn2CC)nc2cc(C(N)=O)cc(OCCCO)c21 [compound 65] | < 30 | < 1000 |  | 
8 | CCc1nc(C)oc1C(=O)Nc1nc2cc(C(N)=O)cc(OCCCC(=O)O)c2n1C/C=C/Cn1/c(=N/C(=O)c2cc(C)nn2CC)sc2cc(C(N)=O)cc(OC)c21 [Compound 150] |  | < 1000 |  | 
9 | CCc1nc(C)oc1C(=O)Nc1nc2cc(C(N)=O)cc(OCCCO)c2n1C/C=C/Cn1c(NC(=O)c2cc(C)nn2CC)nc2cc(C(N)=O)cc(OC)c21 [compound 36] |  | < 1000 |  | 
10 | CCc1nc(C)sc1C(=O)Nc1nc2cc(C(N)=O)cc(OC)c2n1C/C=C/Cn1c(NC(=O)c2sc(C)nc2CC)nc2cc(C(N)=O)cc(OCCCC(=O)O)c21 [Compound 141] |  | 1000 to 50000 |  | 
11 | CCc1nc(C)oc1C(=O)Nc1nc2cc(N)cc(OC)c2n1C/C=C/Cn1c(NC(=O)c2oc(C)nc2CC)nc2cc(C(N)=O)cc(OCCCO)c21 [Compound 135] |  | 1000 to 50000 |  | 
12 | COc1cc(C(N)=O)cc2nc(NC(=O)c3cnc(C)n3C)n(C/C=C/Cn3c(NC(=O)c4cnc(C)n4C)nc4cc(C(N)=O)cc(OCCCO)c43)c12 [compound 16] |  | ≥ 50000 |  | 
13 | CCn1nc(C)cc1C(=O)Nc1nc2cc(N)cnc2n1C/C=C/Cn1c(NC(=O)c2cc(C)nn2CC)nc2cc(C(N)=O)cc(OC)c21 [Compound 134] |  | < 1000 |  | 
14 | CCc1nc(C)oc1C(=O)Nc1nc2cc(C(N)=O)cnc2n1C/C=C/Cn1c(NC(=O)c2oc(C)nc2CC)nc2cc(C(N)=O)cc(OCCCC(=O)O)c21 [compound 97] | ≥ 100 | < 1000 |  | 
15 | CCc1nc(C)oc1C(=O)Nc1nc2cc(CNC(C)=O)cc(OC)c2n1C/C=C/Cn1c(NC(=O)c2oc(C)nc2CC)nc2cc(C(N)=O)cc(OCCCO)c21 [Compound 130] |  | 1000 to 50000 |  | 
16 | CCn1nc(C)cc1C(=O)/N=c1\sc2cc(C(N)=O)cc(OC)c2n1C/C=C/Cn1c(NC(=O)C2=C(C)OCC2)nc2cc(C(N)=O)cc(OCCCO)c21 [compound 75] |  | ≥ 50000 |  | 
17 | COc1cc(C(N)=O)cc2nc(NC(=O)c3cc4ncccc4o3)n(C/C=C/Cn3c(NC(=O)c4cc5ncccc5o4)nc4cc(C(N)=O)cc(OCCCO)c43)c12 [compound 14] |  | ≥ 50000 |  | 
